Experimental findings from a melting point compilation (Tetko et al.; mined from patent text by program, amines drawn as free bases though some values may be those of a salt) are described below.

Bounds are passed on as bounds.

The melting point is the temperature, or range, at which the solid turns liquid.

Take `O=C(COc1cccc(CCNC(=O)OCc2ccccc2)c1)Nc1nnn[nH]1`: the melting point is 164 to 167 °C. To `Cn1nc(-c2ccc3cc(O)ccc3c2)c2ccc(O)cc21` belongs 290 to 292 °C; to `C#Cc1[nH]c2cccc3c2c1CC1C3CC(NC(=O)N(CC)CC)CN1C` (stereo not given), 192 °C; to `CC(=O)NC1CCN(c2nc(Nc3ccc(F)cc3F)c(C(=O)O)cc2F)C1` (stereo not given), 232 to 234 °C. Regarding `CCNC(=O)C(C)(Cc1cc2ccccc2s1)C(N)=O` (stereo not given), the melting point was 141 to 143 °C. On to `CC(C)NCC(O)COc1ccc(CCSCC2CCC2)cc1` (stereo not given), for which the melting point turned out to be 52 °C. Take `Nc1c(Cl)cc(C(O)CNCCCCCCOCCCCCCc2cnccn2)cc1Cl` (stereo not given): the melting point is 60 to 63 °C.

`COc1ccc(-c2nc3ccccc3n3cncc23)cc1` displayed a melting point of 187 to 188 °C. In turn, `Nc1c(-c2ccc(Cl)cc2Cl)nnn1Cc1ccc(O)cc1` registered a melting point of 172 to 174 °C. With `O=S1(=O)NCCN(C2CC2)c2ccc(Oc3ccccc3)cc21`, the melting point stood at 119 °C.

On to `CNC1COc2ccc3[nH]c(C(F)(F)F)nc3c2O1` (stereo not given), for which the melting point was in the range of 199 to 201 °C. The compound `CSc1ccc2c(c1)C(=O)C(C)(C)C(=O)N2` yielded a melting point of 152 °C. In turn, `O=C(Nc1ccnc(Cl)c1)NC1CCCC1` had a melting point of 119 to 121 °C. As for `O=C(NC1CCCn2c1nc(-c1ccncc1)cc2=O)Oc1ccccc1` (racemic), the melting point lay in the range of 193 to 195 °C.

With `COC(=O)c1nc(-c2ccc(Cl)cc2F)cc(N)c1OC`, the melting point lay in the range of 139 to 144 °C. For `CN1C2CCCC1CN(c1ccc(C#Cc3ccc(N)cc3)cc1)C2`, the melting point was determined as 191 °C. The figure for `CCCCCCCCCCCCCCCCCCOc1ccc(C(=O)OCC)cc1[N+](=O)[O-]` is 48 to 56 °C; for `COCC(=O)c1c[nH]c2ncc(-c3cc(OC)c(OC)c(OC)c3)nc12` it is 229 to 230 °C. `O=C1Nc2ccc(Oc3ccccc3)cc2SC(c2ccc3c(c2)OCO3)C1O` (stereo not given) came in with a melting point of 228 to 230 °C. `CCc1nnc(Cc2c(Cl)cncc2Cl)c2ccc(OC)cc12` came in with a melting point of 136 to 138 °C. `C=CCNC(=O)c1ccccc1C(c1ccc(O)cc1)c1ccc(O)cc1` registered a melting point of 179 to 181 °C. The figure for `CCOC(=O)CCc1cn(Cc2ccc(OCc3cn4c(Cl)cccc4n3)cc2)nc1OCC` is 69 to 70 °C. Compound `Cc1cn(N=Cc2cc(C(C)(C)C)c(O)c(C(C)(C)C)c2)cn1` returned a melting point of 150 to 151 °C. Turning to `CCc1nc(C)c(/C=C(\NC(=O)c2ccc(C(=O)NCc3cccc(O)c3)cc2Cl)C(=O)OC)s1`, the melting point was more than 200 °C.

`N#CN1CCC(c2nn(-c3ccc(C(F)(F)F)cc3)c3ccccc23)CC1` gave a melting point of 135 to 136 °C.

Regarding `COc1cc2c(=O)n(CCO)c3c4cc5c(cc4ncc3c2cc1OC)OCO5`, the melting point lay in the range of 285 to 286 °C. The compound `N=C(N)c1cccc(Cn2ccc3ncn(Cc4ccc5ccc(C(=N)N)cc5c4)c3c2=O)c1` came in with a melting point of more than 300 °C. In turn, `CC(=O)N1CCC2(CC1)C(=O)NC(=O)N2c1ccc(C)cc1` returned a melting point of 295 to 297 °C.

In turn, `COc1cc2nc(C(=O)Nc3cc(C)cc(C)n3)[nH]c2cc1OC` returned a melting point of 256 °C. Regarding `Cn1c(C(F)(F)F)cc(=O)n(-c2cc(OCc3cccs3)c(Cl)cc2F)c1=O`, the melting point was 156 to 158 °C. Regarding `COc1ccc(C(=O)C(NC(=O)CCCCCBr)c2ccc(OC)cc2)cc1` (stereo not given), the melting point is 93 °C.

Consider `COc1ccc(C(=O)CC(c2cccs2)C(C)(C)[N+](=O)[O-])cc1` (stereo not given), for which the melting point turned out to be 90 °C.

Turning to `O=C(Nc1ccccc1)O[C@H]1COC(c2cc3ccccc3[nH]2)=N[C@@H]1c1ccccc1` (racemic), the melting point was 166 °C. Turning to `CCCCCCCCCCC1CN(C)C(=O)N(O)C1` (stereo not given), the melting point fell in the range of 63 to 64.5 °C.

As for `CC(=O)Oc1c(C)cc(C(=O)c2ccc(C(=O)c3cc(C)c(OC(C)=O)c(C)c3)cc2)cc1C`, the melting point lay in the range of 255 to 256 °C.
